Results on one compound are retold here after patent EP3366286A1, “COMPOUNDS FOR TREATING SEPSIS” (Keller, Johannes, priority 2017, dated 2018).

The test system of assay [1] is WT mice. The assay can be described thus: Serum cytokine levels (ELISA) after sublethal LPS challenge. It is filed as in vivo. The following applies: 10 h after 10 mg/kg LPS, single injection of 100 mg/kg ip (Figure 5D). The protocol: (§1) Nat Protoc 4, 31-36 (2009). Briefly, an approximately 1 cm abdominal midline incision was made, followed by exposure of the cecum. After ligation, the cecum was punctured three times through and through with a 19-gauge needle and a small portion of feces was pressed out. After repositioning of the bowel, the abdomen was closed in layers using surgical sutures and metallic clips, and 1 ml of 0.9% NaCl (37° Celsius) was slowly injected subcutaneously for resuscitation. For induction of lethal endotoxemia, mice received an intraperitoneal (ip) injection of 40 mg/kg LPS. Survival was monitored at least every 6 h for 7 days after which the experiments were terminated. For pharmacologic proof-of-principle experiments involving II17a, mice received 100 µg/kg PCT and/or 2.5 µg/kg antibody treatment ip 30 minutes before and 12h after induction of septic shock through 40 mg/kg LPS ip. Non-specific IgG was used at equal concentrations. Olcegepant (100 mg/kg) was administered intraperitoneally or subcutaneously as indicated. For in vivo experiments involving expression, histological, and FACS analyses, mice were challenged with a sublethal dose of LPS (10 mg/kg ip). […]
Serum was obtained by cardiac puncture. […] Serum concentrations of PCT, CT and CGRP were measured by ELISA (Kamiya #KT-25866, Bachem #S-1488.0001 BA, S-1167.0001 BA).

In assay [2] the test system is WT mice. Briefly: Survival after cecal ligation and puncture (CLP). It is filed as in vivo. The note with it: 100 mg/kg subcutaneous every 12h (Figure 5F). The protocol: as §1, with “indicated.” for “indicated. For in vivo experiments involving expression, histological, and FACS analyses, mice were challenged with a sublethal dose of LPS (10 mg/kg ip).”
(§2) The number of samples was chosen according to established standards providing sufficient statistical power to enable the detection of biologically relevant differences in animal models. Data were analyzed by two-tailed Student's t-test using Excel software. […]

Assay [3] deals with bone marrow-derived macrophages. Briefly: Cytokine mRNA expression (qRT-PCR) in primary macrophages stimulated with LPS and/or PCT. It is filed as cell-based, mouse. The following applies: macrophages in vitro, LPS plus PCT, mRNA levels (Figure 5C). On the procedure: RNA was isolated using the RNeasyMini kit (Qiagen). For qRT-PCR expression analysis, 1 µg of RNA was reverse transcribed using SuperScriptIII (Invitrogen) according to the manufacturer's instructions. qRT-PCR analysis was performed using predesigned TaqMan gene expression assays (Applied Biosystems) and Gapdh as internal control.
Primary macrophages were generated from bone marrow cells cultured in DMEM supplemented 10% FCS and 40 ng/ml M-CSF for 7 days. Primary DC were generated from mouse bone marrow cells which were grown in RPMI 1640 medium with 10% FBS supplemented with 100 U/ml GM-CSF and 20 ng/ml IL-4 for 7 days. For γδT cell preparations, spleens were dissected and processed through a 40-µm filter, followed by lysis of erythrocytes. γδT lymphocytes were subsequently purified using magnetic labeled beads (Miltenyi Biotec, #130-092-125). For the generation of primary osteoblasts, bone marrow cells were differentiated for 10 days in the presence of 25 µg/ml ascorbic acid and 5 mM β-glycerophosphate as described previously (Keller, J., et al. Calcitonin controls bone formation by inhibiting the release of sphingosine 1-phosphate from osteoclasts. Nat Commun 5, 5215 (2014)). […]

Assay [4] deals with Calca-deficient mice. The assay can be described thus: Survival in lethal endotoxemia (40 mg/kg LPS ip). In kind it is in vivo. The note with it: 100 mg/kg ip co-administered with (immediately before) 40 mg/kg LPS ip (Figure 5G). The protocol:
as §1, with “indicated.” for “indicated. For in vivo experiments involving expression, histological, and FACS analyses, mice were challenged with a sublethal dose of LPS (10 mg/kg ip).”
as §2

Assay [5] concerns αCgrp-deficient mice. The assay can be described thus: Survival in lethal endotoxemia (40 mg/kg LPS ip). The following applies: 100 mg/kg ip immediately before 40 mg/kg LPS (Figure 5H). It is filed as in vivo. The protocol:
as §1, with “indicated.” for “indicated. For in vivo experiments involving expression, histological, and FACS analyses, mice were challenged with a sublethal dose of LPS (10 mg/kg ip).”
as §2

Assay [6] relates to WT mice. Briefly: Survival in lethal endotoxemia (40 mg/kg LPS ip), monitored for 7 days. It is filed as in vivo. The protocol: Nat Protoc 4, 31-36 (2009). Briefly, an approximately 1 cm abdominal midline incision was made, followed by exposure of the cecum. After ligation, the cecum was punctured three times through and through with a 19-gauge needle and a small portion of feces was pressed out. After repositioning of the bowel, the abdomen was closed in layers using surgical sutures and metallic clips, and 1 ml of 0.9% NaCl (37° Celsius) was slowly injected subcutaneously for resuscitation. For induction of lethal endotoxemia, mice received an intraperitoneal (ip) injection of 40 mg/kg LPS. Survival was monitored at least every 6 h for 7 days after which the experiments were terminated. For pharmacologic proof-of-principle experiments involving II17a, mice received 100 µg/kg PCT and/or 2.5 µg/kg antibody treatment ip 30 minutes before and 12h after induction of septic shock through 40 mg/kg LPS ip. Non-specific IgG was used at equal concentrations. Olcegepant (100 mg/kg) was administered intraperitoneally or subcutaneously as indicated. For in vivo experiments involving expression, histological, and FACS analyses, mice were challenged with a sublethal dose of LPS (10 mg/kg ip). The use of in vivo experiments, especially CLP, was kept to a minimum throughout the study (replace, reduce, refine) in accordance to current recommendations for animal welfare in sepsis research (Lilley 2015). Experimental procedures were performed with approval from the animal care committees of the University Medical Center Hamburg-Eppendorf and the Behörde für Umwelt und Gesundheit der Hansestadt Hamburg.
The number of samples was chosen according to established standards providing sufficient statistical power to enable the detection of biologically relevant differences in animal models. Data were analyzed by two-tailed Student's t-test using Excel software. In the case of multiple comparisons, Bonferroni correction was used. Survival analyses were performed using the log-rank-test. If not indicated otherwise, all data are reported as mean ± SD. p<0.05 was considered statistically significant.

“Also recorded” adds a separate entry of the source.

Take `NCCCC[C@H](NC(=O)[C@@H](Cc1cc(Br)c(O)c(Br)c1)NC(=O)N1CCC(N2Cc3ccccc3NC2=O)CC1)C(=O)N1CCN(c2ccncc2)CC1` [olcegepant, N-((1R)-2-(((1S)-5-amino-1-((4-(pyridin-4-yl)piperazin-1-yl)carbonyl)pentyl)amino)-1-(3,5-dibromo-4-hydroxybenzyl)-2-oxoethyl)-4-(2-oxo-1,4-dihydroquinazolin-3(2H)-yl)piperidine-1-carboxamide]: the II1b levels result in assay [1] was “significant reduction”. Further, the II17a levels result in assay [1] is “significant reduction”. The mortality result in assay [2] is listed as “significantly reduced”; in assay [6] (100 mg/kg ip immediately before 40 mg/kg LPS ip (Figure 5E)) it was “significant reduction of mortality”; in assay [6] (single 100 mg/kg ip 4h after 40 mg/kg LPS ip, into the inflamed peritoneal cavity (Figure 12)), “increased mortality; also recorded: decreased survival”. The “LPS-dependent stimulatory effect of PCT on II1b expression” value in assay [3] is listed as “inhibited”. Moreover, in assay [3], the “LPS-dependent stimulatory effect of PCT on II6 expression” value was “inhibited”. The survival entry is “did not further improve the survival” in assay [4]; “significantly prolonged survival” in assay [6] (intermittent subcutaneous treatment 100 mg/kg every 12 hours, starting 4h after ip LPS challenge (Figure 5I)); “trend towards improved survival” in assay [6] (single subcutaneous injection 100 mg/kg 4h after ip LPS challenge (Figure 5I)); “favorable effect” in assay [6] (subcutaneous 4h before LPS (40 mg/kg ip), prophylactic (Figure 5J)). For the same compound, the mortality rates result in assay [5] is “significantly improved mortality rates”.
